Reference: patent US20090098145A1, “METHODS AND COMPOSITIONS FOR TREATING OPHTHALMIC CONDITIONS VIA MODULATION OF MEGALIN ACTIVITY” (Sirion Therapeutics, Inc., priority 2006, published 2009)

Columns and labels:
[1] = tested on: human RPE cells; test: Uptake of RBP-retinol in human RPE cell cultures after antibody or RAP blocking (HPLC of intracellular atRE and atROL); assay type: cell-based; conditions: RAP added to basal chamber, 2 hours at 4° C.; RBP-retinol (10 μM) in basal media; vs pre-immune rabbit IgG
[2] = target: LDL receptor (Homo sapiens, UniProt P01130); conditions: cited from earlier work
[3] = target: gp330 (Rattus norvegicus, UniProt P98158); conditions: cited from earlier work
[4] = tested on: human RPE cells; test: Uptake of Alexa Fluor 488-labelled RBP* and IRBP* by RPE cells with and without RAP (fluorescence microscopy, retinyl esters by HPLC); assay type: cell-based
Procedure: FIG. 13. Illustrates uptake of RBP- and IRBP-retinol into human RPE. Holo-RBP and IRBP were covalently labeled with a fluorescent probe (Alexa Fluor 488). The labeled proteins (RBP* and IRBP*) were added to either the basal (RBP*) or apical (IRBP*) compartments of the RPE cell culture system. Following a 1 hour incubation at 37° C., the media were removed, the cells were extensively washed and the tissues samples analyzed by fluorescence microscopy.
FIG. 14. Illustrates that RAP inhibits basal uptake of RBP-retinol and apical uptake of IRBP-retinol. Uptake of IRBP* and RBP* by RPE cells was monitored before (panels A and B, respectively) and after (panels D and E, respectively) treatment with the LDL receptor antagonist, RAP. […] To ensure that retinol was also taken into the RPE cells, the cells were washed, collected and analyzed for retinoid content by HPLC. Uptake of retinol into RPE cells results in rapid esterification resulting in retinyl ester formation.

[5] = target: megalin (Homo sapiens, UniProt P98164); conditions: cited from earlier work
[6] = target: LRP (Homo sapiens, UniProt Q07954); conditions: cited from earlier work
[7] = target: VLDL receptor (Homo sapiens, UniProt P98155); conditions: cited from earlier work
[8] = target: LDL receptors (on human RPE cells); test: cell-based or functional assay
[9] = tested on: megalin; test: Megalin protein level in mouse eyecup membrane fractions by immunoblot; assay type: in vivo; conditions: MPR-treated mice compared to age-matched wild-type and abcr knockout mice; two immunoreactive bands
Procedure: FIG. 12. Illustrates megalin protein level in the eye cup from mice with different serum RBP-retinol levels. LDL receptors function to uptake RBP-retinol into RPE. RBP knockout mouse and MPR-treated mouse have lower serum RBP-retinol level. Expression of megalin in eyecup tissues from these mice were examined by immunoblot. Membrane fractions of mouse eyecups were prepared from wild-type mouse (WT), RBP knockout mouse (RBP−/−), ABCR null (abcr−/−) and MPR-treated mice (MPR). Two immunoreactive bands were detected (indicated by white arrows in the figure).
Preparation of Megalin-enriched Membranes from Whole Tissue—Sucrose density centrifugation was used to separate the membranous constituents from kidney, retina and RPE-eyecup (RPE plus choroid and sclera) samples. Following dissection, tissue samples were homogenized in a buffer containing 0.25 M sucrose (pH 7.5). The homogenates were centrifuged at 27,000×g for 20 min. The supernatant fraction was discarded and the resulting pellet (P1) was homogenized in a buffer containing 0.5% CHAPS. […]
Immunoblot Analyses—Protein samples which were used for immunoblot analyses were resuspended in SDS loading buffer. […] The membrane was washed four times, developed with ChemiGlow West Substrate (Alpha Innotech, San Leandro, Calif.) and then visualized by a luminescence imager (Fluor Chem from Alpha Innotech).

[10] = in vivo; cited from earlier work
[11] = RAP treatment, fluorescence microscopy

Sequence of megalin (Homo sapiens, UniProt P98164) (P98164 26-4655, species assumed): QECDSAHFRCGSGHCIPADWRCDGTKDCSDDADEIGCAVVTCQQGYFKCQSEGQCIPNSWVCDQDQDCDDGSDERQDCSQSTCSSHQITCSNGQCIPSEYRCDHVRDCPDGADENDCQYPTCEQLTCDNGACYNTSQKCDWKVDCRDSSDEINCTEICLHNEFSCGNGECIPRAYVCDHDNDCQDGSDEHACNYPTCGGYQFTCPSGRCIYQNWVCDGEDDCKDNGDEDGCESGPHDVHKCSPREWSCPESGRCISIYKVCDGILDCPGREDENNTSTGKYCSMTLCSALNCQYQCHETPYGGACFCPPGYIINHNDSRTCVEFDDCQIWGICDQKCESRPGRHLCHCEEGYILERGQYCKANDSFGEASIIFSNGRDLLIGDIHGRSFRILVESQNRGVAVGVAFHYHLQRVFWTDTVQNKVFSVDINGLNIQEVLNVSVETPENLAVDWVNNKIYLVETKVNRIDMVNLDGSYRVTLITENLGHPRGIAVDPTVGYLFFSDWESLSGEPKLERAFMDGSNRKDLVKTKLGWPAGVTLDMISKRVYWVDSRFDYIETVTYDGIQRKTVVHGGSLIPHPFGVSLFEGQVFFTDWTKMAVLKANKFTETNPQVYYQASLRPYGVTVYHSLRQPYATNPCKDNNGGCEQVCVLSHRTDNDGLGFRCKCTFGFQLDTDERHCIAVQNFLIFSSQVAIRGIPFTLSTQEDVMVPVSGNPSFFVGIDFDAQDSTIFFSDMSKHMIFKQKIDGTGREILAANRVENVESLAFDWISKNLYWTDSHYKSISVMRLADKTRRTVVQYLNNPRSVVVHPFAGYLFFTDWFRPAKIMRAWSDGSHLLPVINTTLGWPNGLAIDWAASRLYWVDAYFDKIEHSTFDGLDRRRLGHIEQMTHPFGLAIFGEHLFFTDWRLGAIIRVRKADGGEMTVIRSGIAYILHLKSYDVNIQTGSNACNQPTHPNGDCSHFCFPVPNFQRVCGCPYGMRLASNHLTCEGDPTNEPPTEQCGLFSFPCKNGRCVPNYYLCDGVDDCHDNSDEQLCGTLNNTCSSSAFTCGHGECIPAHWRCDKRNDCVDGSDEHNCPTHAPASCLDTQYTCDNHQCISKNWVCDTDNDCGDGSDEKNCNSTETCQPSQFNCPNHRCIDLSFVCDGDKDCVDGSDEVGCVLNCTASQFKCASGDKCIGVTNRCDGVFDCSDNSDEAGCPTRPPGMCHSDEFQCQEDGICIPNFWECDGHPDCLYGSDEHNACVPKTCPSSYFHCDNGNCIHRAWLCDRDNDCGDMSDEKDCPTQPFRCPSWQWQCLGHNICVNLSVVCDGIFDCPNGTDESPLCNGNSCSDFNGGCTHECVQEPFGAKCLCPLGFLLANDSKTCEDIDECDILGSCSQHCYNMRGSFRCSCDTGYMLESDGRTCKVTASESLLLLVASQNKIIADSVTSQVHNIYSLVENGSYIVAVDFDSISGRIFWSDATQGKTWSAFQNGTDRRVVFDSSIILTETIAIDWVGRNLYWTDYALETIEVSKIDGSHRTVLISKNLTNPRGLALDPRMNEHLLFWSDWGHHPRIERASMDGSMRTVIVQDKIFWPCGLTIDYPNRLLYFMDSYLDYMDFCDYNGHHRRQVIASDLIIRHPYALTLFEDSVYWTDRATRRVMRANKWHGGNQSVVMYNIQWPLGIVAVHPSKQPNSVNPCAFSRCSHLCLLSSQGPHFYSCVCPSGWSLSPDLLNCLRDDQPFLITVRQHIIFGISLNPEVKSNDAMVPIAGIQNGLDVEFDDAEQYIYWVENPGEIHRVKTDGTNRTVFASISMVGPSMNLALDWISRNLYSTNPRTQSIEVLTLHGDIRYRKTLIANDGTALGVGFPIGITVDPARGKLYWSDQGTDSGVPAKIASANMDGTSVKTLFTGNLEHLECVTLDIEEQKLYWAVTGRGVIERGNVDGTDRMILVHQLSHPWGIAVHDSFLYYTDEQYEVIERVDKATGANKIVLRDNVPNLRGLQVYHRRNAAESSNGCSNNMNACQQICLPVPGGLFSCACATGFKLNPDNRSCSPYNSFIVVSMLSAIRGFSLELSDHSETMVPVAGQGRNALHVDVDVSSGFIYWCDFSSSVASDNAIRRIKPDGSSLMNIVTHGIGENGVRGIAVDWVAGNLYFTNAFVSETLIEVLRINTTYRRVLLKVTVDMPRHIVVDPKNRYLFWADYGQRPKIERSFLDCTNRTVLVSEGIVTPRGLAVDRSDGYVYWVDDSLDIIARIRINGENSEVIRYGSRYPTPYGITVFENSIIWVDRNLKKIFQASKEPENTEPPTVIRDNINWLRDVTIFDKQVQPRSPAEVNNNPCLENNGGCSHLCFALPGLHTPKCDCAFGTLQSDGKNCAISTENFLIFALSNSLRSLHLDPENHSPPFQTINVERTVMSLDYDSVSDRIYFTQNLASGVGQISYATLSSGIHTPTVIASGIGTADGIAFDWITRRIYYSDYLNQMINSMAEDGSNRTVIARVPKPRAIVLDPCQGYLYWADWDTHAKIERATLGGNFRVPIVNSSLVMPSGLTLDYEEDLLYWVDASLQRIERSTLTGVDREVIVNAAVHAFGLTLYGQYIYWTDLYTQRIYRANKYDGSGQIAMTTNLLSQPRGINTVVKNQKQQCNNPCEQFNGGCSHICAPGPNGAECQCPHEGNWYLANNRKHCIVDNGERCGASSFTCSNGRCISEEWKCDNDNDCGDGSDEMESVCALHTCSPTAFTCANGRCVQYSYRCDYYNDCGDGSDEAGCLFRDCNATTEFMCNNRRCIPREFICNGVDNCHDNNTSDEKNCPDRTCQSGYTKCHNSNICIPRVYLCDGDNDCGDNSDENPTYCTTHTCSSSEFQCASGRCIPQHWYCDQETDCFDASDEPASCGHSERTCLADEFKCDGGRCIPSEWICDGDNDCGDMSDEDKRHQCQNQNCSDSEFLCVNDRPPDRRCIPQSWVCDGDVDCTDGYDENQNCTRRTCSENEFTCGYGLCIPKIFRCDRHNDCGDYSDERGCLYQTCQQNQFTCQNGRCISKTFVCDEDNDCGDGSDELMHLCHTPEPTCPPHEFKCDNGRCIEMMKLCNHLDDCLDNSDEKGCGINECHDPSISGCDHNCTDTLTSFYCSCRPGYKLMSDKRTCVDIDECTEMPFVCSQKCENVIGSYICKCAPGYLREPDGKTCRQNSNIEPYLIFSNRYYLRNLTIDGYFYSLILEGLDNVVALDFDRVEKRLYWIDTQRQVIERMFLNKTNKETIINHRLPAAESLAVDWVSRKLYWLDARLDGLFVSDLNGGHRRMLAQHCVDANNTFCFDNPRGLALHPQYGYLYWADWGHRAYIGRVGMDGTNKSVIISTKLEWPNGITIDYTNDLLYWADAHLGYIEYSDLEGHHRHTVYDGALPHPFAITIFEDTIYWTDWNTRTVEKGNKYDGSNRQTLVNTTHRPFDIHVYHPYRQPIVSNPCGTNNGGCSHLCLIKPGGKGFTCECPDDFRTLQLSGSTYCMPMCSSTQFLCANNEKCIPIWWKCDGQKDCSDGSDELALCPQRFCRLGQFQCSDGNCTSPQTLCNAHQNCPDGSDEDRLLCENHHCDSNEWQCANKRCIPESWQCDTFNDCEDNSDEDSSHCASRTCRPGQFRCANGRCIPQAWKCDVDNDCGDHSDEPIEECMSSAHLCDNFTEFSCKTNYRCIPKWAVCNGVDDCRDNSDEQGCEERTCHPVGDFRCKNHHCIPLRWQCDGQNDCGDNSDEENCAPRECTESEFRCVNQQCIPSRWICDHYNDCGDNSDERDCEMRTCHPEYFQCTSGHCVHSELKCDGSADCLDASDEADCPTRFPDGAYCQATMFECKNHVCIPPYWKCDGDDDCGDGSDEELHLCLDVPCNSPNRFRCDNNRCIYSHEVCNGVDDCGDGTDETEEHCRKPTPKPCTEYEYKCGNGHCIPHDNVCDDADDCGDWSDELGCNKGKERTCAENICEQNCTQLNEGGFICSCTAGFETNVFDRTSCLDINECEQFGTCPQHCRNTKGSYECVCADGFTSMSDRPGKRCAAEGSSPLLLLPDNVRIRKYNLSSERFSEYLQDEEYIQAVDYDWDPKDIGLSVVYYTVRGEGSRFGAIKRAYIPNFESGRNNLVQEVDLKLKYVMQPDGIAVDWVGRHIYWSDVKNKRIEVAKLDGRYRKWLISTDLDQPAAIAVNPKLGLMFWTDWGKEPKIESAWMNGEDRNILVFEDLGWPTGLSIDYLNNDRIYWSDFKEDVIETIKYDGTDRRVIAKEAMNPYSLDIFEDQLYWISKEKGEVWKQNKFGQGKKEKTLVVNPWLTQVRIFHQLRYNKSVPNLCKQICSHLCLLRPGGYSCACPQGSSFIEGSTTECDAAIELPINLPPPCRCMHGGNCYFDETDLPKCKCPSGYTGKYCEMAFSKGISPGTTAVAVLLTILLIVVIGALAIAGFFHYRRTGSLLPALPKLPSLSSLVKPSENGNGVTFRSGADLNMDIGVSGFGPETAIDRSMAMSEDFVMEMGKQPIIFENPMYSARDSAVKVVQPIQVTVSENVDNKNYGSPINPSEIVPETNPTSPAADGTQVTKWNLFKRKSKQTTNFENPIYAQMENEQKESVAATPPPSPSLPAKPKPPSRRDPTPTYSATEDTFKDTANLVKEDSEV

RAP: 39 kDa receptor-associated protein, chaperone and universal ligand binding antagonist of LDL receptor gene family members
inhibition of RBP-retinol uptake by RAP [1]: 47% | Kd [2]: 500 nM | Kd [3]: 8 nM | reduction in retinol uptake as measured by retinyl ester content ([4]; RAP pre-treatment, retinyl esters by HPLC): ~50% | apical uptake of IRBP* [4, 11]: completely suppressed | basal uptake of RBP* [4, 11]: completely suppressed | binding sites occupied on the receptor protein megalin [5]: two | Kd [6]: 4 nM | Kd [7]: 0.7 nM

receptor-associated protein (RAP) obtained from Oxford Biomedical Research
inhibition of basal RBP-retinol uptake in human RPE cultures (HPLC of intracellular atRE and atROL) after RAP pre-treatment [8]: 47% | reduction in retinol uptake as measured by retinyl ester content (HPLC) after RAP pre-treatment [8]: 50%

COc1ccc(NC(=O)\C=C(C)/C=C/C=C(C)\C=C\C2=C(C)CCCC2(C)C)cc1 (stereo in doubt) [MPR, 4-methoxyphenylretinamide]
expression of megalin-immunoreactive proteins in eyecup [9]: reduced expression | retinol and RBP levels in serum [10]: reduce

gentamicin [reference compound]
molecules bound per megalin protein [5]: 60-100
